What is called Kd is the equilibrium constant for the complex coming apart.

Assay in all cases: biochemical
What all share (type): binding

The target of one assay is T1, BLNK (Homo sapiens, UniProt Q8WV28).
T1 construct: the DNA-tagged SH2 domain concentrations used in this study were <0.1 nM; made in house; host or cells: HEK293 (transient transfection; unpurified extract)
T1 sequence (Q8WV28 346-453 limits assumed): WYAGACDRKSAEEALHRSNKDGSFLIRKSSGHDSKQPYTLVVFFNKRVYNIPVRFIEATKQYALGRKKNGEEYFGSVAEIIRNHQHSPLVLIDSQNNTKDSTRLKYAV
As to conditions: read-out: percent of DMSO vehicle control.

The next assay concerns the target T2, CRKL (Homo sapiens, UniProt P46109).
T2 construct: the DNA-tagged SH2 domain concentrations used in this study were <0.1 nM; made in house; host or cells: HEK293 (transient transfection; unpurified extract)
As to conditions: read-out: percent of DMSO vehicle control.

The target of another assay is T3, GADS (Homo sapiens, UniProt O75791).
T3 construct: the DNA-tagged SH2 domain concentrations used in this study were <0.1 nM; made in house; host or cells: HEK293 (transient transfection; unpurified extract)
T3 sequence (O75791 58-149 limits assumed): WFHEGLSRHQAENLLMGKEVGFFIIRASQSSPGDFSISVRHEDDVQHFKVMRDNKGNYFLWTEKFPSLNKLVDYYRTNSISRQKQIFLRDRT
The settings on record: read-out: percent of DMSO vehicle control.

A further assay deals with T4, GRB2 (Homo sapiens, UniProt P62993).
T4 construct: the DNA-tagged SH2 domain concentrations used in this study were <0.1 nM; made in house; host or cells: HEK293 (transient transfection; unpurified extract)
T4 sequence (P62993 60-152 limits assumed): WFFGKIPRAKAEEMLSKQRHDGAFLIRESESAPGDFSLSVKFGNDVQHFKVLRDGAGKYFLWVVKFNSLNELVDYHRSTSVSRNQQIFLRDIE
As to conditions: for percent of DMSO vehicle control: primary screen, 10 μM.

The next assay deals with T5, PIK3R2(SH2dom.C-term.) (Homo sapiens, UniProt O00459).
T5 construct: SH2dom.C-term. denotes SH2 domain closest to C-terminus of protein; made in house; host or cells: HEK293 (transient transfection, unpurified extract)
T5 sequence (O00459 622-716 limits assumed): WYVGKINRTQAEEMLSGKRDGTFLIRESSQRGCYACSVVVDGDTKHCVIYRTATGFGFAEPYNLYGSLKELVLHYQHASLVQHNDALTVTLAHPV
As to conditions: for KD: dose-response; for remaining activity at 10 µM: read-out: percent of DMSO vehicle control.

In the next assay the target is T6, PIK3R3(SH2dom.C-term.) (Homo sapiens, UniProt Q92569).
T6 construct: SH2dom.C-term. denotes SH2 domain closest to C-terminus of protein; made in house; host or cells: HEK293 (transient transfection, unpurified extract)
The settings on record: for remaining activity at 10 µM: read-out: percent of DMSO vehicle control.

The target in another assay is T7, SHB (Homo sapiens, UniProt Q15464).
T7 construct: made in house; host or cells: HEK293 (transient transfection), unpurified extract
T7 sequence (Q15464 whole entry): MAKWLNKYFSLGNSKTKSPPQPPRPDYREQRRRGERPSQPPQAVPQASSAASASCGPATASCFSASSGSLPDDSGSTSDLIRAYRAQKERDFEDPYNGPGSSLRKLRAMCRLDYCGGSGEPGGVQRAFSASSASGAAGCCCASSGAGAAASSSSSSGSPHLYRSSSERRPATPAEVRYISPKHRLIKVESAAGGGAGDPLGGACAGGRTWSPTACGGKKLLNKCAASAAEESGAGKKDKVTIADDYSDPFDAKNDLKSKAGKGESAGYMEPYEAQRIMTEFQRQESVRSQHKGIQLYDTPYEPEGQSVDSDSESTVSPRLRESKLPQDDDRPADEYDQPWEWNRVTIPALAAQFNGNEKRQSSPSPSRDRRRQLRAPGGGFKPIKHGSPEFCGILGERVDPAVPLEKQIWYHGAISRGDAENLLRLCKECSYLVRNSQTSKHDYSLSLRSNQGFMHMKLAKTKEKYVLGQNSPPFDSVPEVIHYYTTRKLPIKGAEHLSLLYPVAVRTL
The settings on record: read-out: percent of DMSO vehicle control.

The next assay has as its target T8, SHF (Homo sapiens, UniProt Q7M4L6).
T8 construct: made in house; host or cells: HEK293 (transient transfection), unpurified extract
T8 sequence (Q7M4L6 1-423): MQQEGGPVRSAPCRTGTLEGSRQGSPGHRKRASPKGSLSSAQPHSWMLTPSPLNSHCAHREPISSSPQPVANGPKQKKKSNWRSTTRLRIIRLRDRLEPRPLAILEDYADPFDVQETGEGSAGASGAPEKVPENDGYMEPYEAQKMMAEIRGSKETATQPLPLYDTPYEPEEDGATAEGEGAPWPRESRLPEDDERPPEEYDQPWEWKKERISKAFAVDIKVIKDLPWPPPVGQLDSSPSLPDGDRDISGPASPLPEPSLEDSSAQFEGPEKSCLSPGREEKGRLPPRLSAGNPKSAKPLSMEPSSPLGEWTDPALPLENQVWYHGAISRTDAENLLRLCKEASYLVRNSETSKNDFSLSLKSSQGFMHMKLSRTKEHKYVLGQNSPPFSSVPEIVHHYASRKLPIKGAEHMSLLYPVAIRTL
As to conditions: read-out: percent of DMSO vehicle control.

A further assay has as its target T9, SOCS1 (Homo sapiens, UniProt O15524).
T9 construct: made in house; host or cells: HEK293 (transient transfection), unpurified extract
T9 sequence (O15524 1-211): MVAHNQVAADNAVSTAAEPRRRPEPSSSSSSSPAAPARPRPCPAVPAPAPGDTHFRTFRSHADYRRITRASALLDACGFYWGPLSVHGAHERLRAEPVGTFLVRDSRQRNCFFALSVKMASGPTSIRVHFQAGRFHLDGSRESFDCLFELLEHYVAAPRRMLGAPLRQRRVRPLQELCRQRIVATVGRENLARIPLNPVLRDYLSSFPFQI
As to conditions: read-out: percent of DMSO vehicle control.

In the next assay the target is T10, SRMS (Homo sapiens, UniProt Q9H3Y6).
T10 construct: made in house; host or cells: HEK293 (transient transfection), unpurified extract
T10 sequence (Q9H3Y6 whole entry): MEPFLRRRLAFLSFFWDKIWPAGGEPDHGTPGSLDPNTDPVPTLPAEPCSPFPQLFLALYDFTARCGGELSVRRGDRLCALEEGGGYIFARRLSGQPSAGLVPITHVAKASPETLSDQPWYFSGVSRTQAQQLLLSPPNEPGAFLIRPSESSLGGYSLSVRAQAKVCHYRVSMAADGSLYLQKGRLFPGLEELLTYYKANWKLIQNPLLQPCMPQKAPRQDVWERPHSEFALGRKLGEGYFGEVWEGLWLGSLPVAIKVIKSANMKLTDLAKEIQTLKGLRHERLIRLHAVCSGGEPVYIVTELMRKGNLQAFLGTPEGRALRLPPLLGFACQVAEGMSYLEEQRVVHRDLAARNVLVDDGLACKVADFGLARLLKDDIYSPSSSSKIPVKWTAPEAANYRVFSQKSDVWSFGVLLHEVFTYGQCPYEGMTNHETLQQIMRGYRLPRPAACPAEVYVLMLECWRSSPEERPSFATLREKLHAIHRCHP
The settings on record: for remaining activity at 10 µM: read-out: percent of DMSO vehicle control.

The target of the next assay is T11, TEC (Homo sapiens, UniProt P42680).
T11 construct: made in house; host or cells: HEK293 (transient transfection), unpurified extract
T11 sequence (P42680 1-631): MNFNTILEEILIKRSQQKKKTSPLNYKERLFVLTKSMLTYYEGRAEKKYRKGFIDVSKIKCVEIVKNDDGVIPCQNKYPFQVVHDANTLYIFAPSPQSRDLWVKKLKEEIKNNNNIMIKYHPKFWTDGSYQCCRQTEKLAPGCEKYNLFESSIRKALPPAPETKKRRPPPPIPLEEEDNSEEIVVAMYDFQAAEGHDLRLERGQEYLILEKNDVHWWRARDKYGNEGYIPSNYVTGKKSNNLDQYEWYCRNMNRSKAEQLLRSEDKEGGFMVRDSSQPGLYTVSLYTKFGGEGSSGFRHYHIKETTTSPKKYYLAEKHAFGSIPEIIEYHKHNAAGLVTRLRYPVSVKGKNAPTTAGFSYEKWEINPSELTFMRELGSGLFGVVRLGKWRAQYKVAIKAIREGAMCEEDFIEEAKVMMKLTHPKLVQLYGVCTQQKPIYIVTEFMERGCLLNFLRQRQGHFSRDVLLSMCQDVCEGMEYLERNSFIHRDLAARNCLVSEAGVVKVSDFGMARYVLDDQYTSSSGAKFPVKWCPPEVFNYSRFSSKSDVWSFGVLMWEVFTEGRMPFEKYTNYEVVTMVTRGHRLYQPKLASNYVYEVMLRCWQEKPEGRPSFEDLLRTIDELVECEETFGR
The settings on record: read-out: percent of DMSO vehicle control.

A further assay has as its target T12, TNS1 (Homo sapiens, UniProt Q9HBL0).
T12 construct: made in house; host or cells: HEK293 (transient transfection), unpurified extract

Setting [1] is: read-out: percent of DMSO vehicle control.

Where two headings read alike, the source gives them in different places. Non-standard residues stand in square brackets, D forms with d. Residues, ends and D or L forms follow the SMILES beside them. pY = N[C@@H](Cc1ccc(OP(=O)(O)O)cc1)C(=O)O

T12 sequence (Q9HBL0 whole entry): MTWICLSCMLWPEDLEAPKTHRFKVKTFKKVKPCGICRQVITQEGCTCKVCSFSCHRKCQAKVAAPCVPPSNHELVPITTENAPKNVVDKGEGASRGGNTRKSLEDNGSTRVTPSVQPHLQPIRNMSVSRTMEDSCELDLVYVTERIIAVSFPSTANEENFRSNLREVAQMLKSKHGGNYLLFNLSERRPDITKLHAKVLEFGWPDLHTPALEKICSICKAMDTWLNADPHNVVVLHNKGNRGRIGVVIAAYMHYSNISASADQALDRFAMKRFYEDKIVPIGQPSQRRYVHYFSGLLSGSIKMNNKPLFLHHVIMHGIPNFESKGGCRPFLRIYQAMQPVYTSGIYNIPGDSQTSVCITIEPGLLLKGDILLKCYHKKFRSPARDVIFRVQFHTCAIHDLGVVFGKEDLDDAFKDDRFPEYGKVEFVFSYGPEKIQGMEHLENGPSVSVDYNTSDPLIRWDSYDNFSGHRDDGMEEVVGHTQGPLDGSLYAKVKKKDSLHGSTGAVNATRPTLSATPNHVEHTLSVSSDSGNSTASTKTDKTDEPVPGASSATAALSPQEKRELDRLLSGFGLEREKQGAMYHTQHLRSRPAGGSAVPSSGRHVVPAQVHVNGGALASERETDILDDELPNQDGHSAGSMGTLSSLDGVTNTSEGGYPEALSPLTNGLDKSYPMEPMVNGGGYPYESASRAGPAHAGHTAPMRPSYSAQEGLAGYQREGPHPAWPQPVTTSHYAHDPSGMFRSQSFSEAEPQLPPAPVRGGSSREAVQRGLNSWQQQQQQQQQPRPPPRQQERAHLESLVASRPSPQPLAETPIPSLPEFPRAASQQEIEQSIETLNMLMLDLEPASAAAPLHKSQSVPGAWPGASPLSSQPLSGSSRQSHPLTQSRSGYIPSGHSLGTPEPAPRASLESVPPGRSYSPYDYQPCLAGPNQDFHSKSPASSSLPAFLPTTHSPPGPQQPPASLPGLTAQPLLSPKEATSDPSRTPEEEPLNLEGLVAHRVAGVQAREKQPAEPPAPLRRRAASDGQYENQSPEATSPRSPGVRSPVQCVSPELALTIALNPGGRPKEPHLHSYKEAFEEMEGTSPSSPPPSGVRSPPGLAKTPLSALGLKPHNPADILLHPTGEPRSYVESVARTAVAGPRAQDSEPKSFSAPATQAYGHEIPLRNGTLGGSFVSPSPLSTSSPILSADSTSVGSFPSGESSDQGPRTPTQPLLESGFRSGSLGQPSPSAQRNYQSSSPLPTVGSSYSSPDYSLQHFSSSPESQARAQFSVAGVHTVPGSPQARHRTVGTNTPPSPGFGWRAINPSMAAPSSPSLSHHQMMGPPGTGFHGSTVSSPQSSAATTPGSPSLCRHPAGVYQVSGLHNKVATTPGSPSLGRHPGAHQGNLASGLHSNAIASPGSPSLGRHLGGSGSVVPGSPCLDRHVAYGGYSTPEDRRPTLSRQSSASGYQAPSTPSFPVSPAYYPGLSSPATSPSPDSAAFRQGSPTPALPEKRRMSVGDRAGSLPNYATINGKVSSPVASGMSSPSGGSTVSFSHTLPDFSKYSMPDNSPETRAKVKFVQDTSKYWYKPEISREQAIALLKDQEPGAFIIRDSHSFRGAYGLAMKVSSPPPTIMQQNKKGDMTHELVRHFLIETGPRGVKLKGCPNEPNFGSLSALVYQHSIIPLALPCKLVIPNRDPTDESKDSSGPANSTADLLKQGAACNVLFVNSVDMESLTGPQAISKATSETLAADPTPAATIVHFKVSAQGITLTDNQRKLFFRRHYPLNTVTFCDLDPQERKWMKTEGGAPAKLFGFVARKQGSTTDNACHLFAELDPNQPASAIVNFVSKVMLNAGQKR
T2 sequence (P46109 14-102 limits assumed): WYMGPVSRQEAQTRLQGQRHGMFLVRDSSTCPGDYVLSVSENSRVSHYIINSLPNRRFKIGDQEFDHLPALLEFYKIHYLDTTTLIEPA

As for `O=C(CCl)Nc1cccc(CNC(=O)[C@H](Cc2ccc(OP(=O)(O)O)cc2)NC(=O)Cc2ccc(F)cc2)c1` [MN551], the remaining activity at 10 µM is 101% at BLNK (primary screen, 10 μM); 202% on CRKL (primary screen, 10 μM); 42.9 ± 0.8% at GADS (primary screen, 10 μM); 30.3% on PIK3R2(SH2dom.C-term.) (primary screen, 10 μM); 27.3 ± 3.8% on PIK3R3(SH2dom.C-term.) (primary screen, 10 μM); 102% at SHB (primary screen, 10 μM). Also, the remaining activity at 10 µM on SHF (primary screen, 10 μM) was determined as 103%; on SOCS1 (primary screen, 10 μM), 38.1 ± 7.5%; on SRMS (primary screen, 10 μM), 1.3 ± 0.6%; at TEC (primary screen, 10 μM), 120%; at TNS1 (primary screen, 10 μM, read-out: percent of DMSO vehicle control), 134%. Further, the “percent of DMSO vehicle control” value on GRB2 turned out to be 103.7%. Further, the KD result at PIK3R2(SH2dom.C-term.) and at SRMS (dose-response) was “No Hit” throughout. Also, on PIK3R3(SH2dom.C-term.) (dose-response, read-out: KD), the dissociation constant (Kd) was found to be 4400 nM.

For `CC(=O)N[C@@H](Cc1ccc(CP(=O)(O)O)cc1)C(=O)NC1(C(=O)N[C@@H](CC(N)=O)C(=O)NCCCc2c(O)ccc3ccccc23)CCCCC1` [CGP78850], the remaining activity at 10 µM on BLNK amounted to 117 ± 7.1%; at PIK3R2(SH2dom.C-term.) it was 0.4 ± 0.4%; on PIK3R3(SH2dom.C-term.) it was 0%; at SHB, 97.4 ± 9.4%; on SHF, 77.1 ± 2.6%; on SOCS1, 129 ± 11.7%. Moreover, the remaining activity at 10 µM at SRMS is 65.3 ± 5.9%. For the same compound, the percent of DMSO vehicle control at 10 µM at CRKL worked out at 36.4 ± 18.5%; at GADS it was 42 ± 2.5%; on TEC it was 126.5 ± 0.2%; on TNS1 (setting [1]) it was 16.4 ± 0.3%. Further, the dissociation constant Kd turned out to be 3.4 nM at GRB2, 48 nM on PIK3R3(SH2dom.C-term.) and 408 nM on TNS1. The “percent of DMSO vehicle control” value at GRB2 was 0.0±0.0%. At PIK3R2(SH2dom.C-term.), the KD entry is reported as “No Hit”.

`CC(=O)N1CC[C@H]2CC[C@@H](C(=O)N[C@@H](CCC(N)=O)C(=O)NC(c3ccccc3)c3ccccc3)N2C(=O)[C@@H](NC(=O)c2cc3cc(C(F)(F)P(=O)(O)O)ccc3[nH]2)C1` [SI-109]: the remaining activity at 10 µM is 117% at BLNK; 120% on PIK3R2(SH2dom.C-term.); 137% on PIK3R3(SH2dom.C-term.); 129% at SHB; 78.9 ± 3% on SHF; 103% at SOCS1. The remaining activity at 10 µM on SRMS came to 123%. Moreover, the percent of DMSO vehicle control at 10 µM on CRKL came out at 125%; at GADS it was 276%; at TEC, 135%; at TNS1 (setting [1]), 152%. Further, the “percent of DMSO vehicle control” value on GRB2 is on record as 104.9%.

For `CC[C@H](C)[C@H](NC(=O)[C@H](CO)NC(=O)[C@H](CC(C)C)NC(=O)[C@H](CCCNC(=N)N)NC(=O)[C@H](CO)NC(=O)[C@H](CS)NC(C)=O)C(=O)N[C@@H](Cc1ccc(OP(=O)(O)O)cc1)C(=O)N[C@@H](CC(=O)O)C(=O)N[C@@H](CC(N)=O)C(=O)N[C@H](C(=O)N1CCC[C@H]1C(=O)NCC(N)=O)C(C)C` [Ac-CSRLSIpYDNVPG-NH2] (Ac-CSRLSI[pY]DNVPG-NH2), on TNS1, the Kd came out at 1350 ± 530 nM.
